Results: ChEMBL document CHEMBL5143570, “Development of naringenin-O-carbamate derivatives as multi-target-directed liagnds for the treatment of Alzheimer's disease” (Bioorg Med Chem Lett, 2022)

Tests used:
[1] = molecular target: T1, Acetylcholinesterase (Rattus norvegicus, UniProt P37136); assay: Inhibition of rat cortex AChE using acetylthiocholine as substrate incubated for 15 mins by DTNB reagent based Ellman's method; assay type: tissue-based
T1 sequence (P37136 whole entry): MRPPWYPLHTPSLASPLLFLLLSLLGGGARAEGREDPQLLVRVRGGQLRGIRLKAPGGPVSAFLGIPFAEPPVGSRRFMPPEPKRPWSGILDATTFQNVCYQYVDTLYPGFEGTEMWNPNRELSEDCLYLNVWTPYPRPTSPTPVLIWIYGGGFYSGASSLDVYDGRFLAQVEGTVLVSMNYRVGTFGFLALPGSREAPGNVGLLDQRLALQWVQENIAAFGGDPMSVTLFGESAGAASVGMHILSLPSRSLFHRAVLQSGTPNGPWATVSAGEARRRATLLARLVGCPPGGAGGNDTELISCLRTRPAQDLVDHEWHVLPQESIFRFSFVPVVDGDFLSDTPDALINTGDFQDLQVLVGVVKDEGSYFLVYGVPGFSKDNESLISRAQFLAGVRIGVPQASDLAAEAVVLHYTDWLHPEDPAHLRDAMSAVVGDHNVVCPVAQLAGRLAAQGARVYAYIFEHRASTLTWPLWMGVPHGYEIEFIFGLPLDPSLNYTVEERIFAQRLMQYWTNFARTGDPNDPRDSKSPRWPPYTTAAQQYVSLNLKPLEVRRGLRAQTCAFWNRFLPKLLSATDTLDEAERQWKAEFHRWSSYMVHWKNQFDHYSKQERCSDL

[2] = molecular target: T2, Acetylcholinesterase (Homo sapiens, UniProt P22303); assay: Inhibition of human erythrocyte AChE using acetylthiocholine as substrate incubated for 15 mins by DTNB reagent based Ellman's method; assay type: cell-based
[3] = molecular target: T2, Acetylcholinesterase; assay: Pseudo-irreversible inhibition of human AChE assessed as restoration of enzyme activity at 0.1 time of IC50 concentration incubated for 120 mins by dilution method relative to control; set-up: scale not given: the % may be the effect or the level left
[4] = Inhibition of LPS-induced TNFalpha production in mouse BV-2 cells assessed as TNFalpha level at 10 uM by ELISA analysis relative to control; assay type: functional
[5] = molecular target: Amyloid-beta precursor protein (Homo sapiens) (UniProt P05067); assay: Disaggregation of Cu2+-induced amyloid beta (1 to 42) (unknown origin) aggregation at 25 uM by thioflavin-T fluorescence method relative to control
Chain of Amyloid-beta precursor protein (Homo sapiens) (P05067 whole entry): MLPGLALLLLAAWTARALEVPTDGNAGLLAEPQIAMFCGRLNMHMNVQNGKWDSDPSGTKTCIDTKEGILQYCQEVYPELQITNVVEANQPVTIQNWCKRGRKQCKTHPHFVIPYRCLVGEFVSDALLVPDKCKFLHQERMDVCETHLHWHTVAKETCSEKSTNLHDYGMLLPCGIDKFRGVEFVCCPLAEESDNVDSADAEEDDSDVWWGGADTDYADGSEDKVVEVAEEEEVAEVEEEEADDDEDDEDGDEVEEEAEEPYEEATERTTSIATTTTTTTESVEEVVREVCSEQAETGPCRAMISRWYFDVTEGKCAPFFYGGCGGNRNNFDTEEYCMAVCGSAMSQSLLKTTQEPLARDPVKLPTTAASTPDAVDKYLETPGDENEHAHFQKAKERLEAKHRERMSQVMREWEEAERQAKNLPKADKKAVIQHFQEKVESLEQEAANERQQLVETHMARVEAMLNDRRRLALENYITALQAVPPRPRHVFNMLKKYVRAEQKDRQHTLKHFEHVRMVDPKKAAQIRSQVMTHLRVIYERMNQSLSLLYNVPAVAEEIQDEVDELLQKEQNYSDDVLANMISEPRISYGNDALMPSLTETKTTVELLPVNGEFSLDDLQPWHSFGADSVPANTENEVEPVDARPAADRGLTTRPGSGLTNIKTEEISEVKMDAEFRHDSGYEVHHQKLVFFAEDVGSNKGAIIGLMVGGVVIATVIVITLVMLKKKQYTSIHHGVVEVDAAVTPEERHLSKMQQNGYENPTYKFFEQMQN

T2 sequence (P22303 whole entry): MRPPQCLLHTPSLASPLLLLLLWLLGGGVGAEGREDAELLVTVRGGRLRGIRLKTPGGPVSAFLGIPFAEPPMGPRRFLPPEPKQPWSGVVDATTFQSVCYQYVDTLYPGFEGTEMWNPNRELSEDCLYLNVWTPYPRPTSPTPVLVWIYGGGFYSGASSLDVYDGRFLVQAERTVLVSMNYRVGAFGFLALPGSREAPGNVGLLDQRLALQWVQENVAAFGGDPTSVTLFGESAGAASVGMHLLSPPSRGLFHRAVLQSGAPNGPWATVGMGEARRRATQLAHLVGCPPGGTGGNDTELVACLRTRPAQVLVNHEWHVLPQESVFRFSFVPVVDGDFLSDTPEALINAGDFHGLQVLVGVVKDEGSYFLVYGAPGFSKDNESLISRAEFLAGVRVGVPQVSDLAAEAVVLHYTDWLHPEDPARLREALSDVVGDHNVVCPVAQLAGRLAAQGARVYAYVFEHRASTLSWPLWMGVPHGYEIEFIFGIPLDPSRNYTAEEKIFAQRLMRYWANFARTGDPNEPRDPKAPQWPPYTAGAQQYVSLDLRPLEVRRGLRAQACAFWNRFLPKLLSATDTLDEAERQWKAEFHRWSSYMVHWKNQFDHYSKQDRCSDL

CCN(C)C(=O)Oc1ccc(C2CC(=O)c3c(O)cc(OC(=O)N(C)CC)cc3O2)cc1 (stereo not given)
IC50 [1]: 6.2 µM | IC50 [2]: 9.7 µM | Activity [3]: 81.7% | inhibition at 10 µM [4]: 68.7% | Activity [5]: 54.4%
